# Tests used:
# Assay in all cases: relative viability (nuclei count vs DMSO), 5 days (fraction); higher = more cells survive
# AZ505 + Crizotinib = compound: C1CCC(CC1)N(CCNCCC2=C3C(=C(C=C2)O)NC(=O)CO3)C(=O)CCNCCC4=CC(=C(C=C4)Cl)Cl [AZ505] + C[C@@H](Oc1cc(-c2cnn(C3CCNCC3)c2)cnc1N)c1c(Cl)ccc(F)c1Cl [Crizotinib] (partner 1 µM)
# Procedure, shortened: (§1)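 Each reported value is a median over duplicate plates. It expresses relative viability: treated-well nuclei count divided by vehicle-well nuclei count. Lung cancer cell lines in 1536-well plates were dosed by pin tool a day after seeding, alone with one drug or with a fixed anchor-drug dose plus five library-drug doses (not always all listed) in √10 steps, and nuclei were counted after 5 days.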
# Dactolisib + Tozasertib = compound: Cn1c(=O)n(-c2ccc(C(C)(C)C#N)cc2)c2c3cc(-c4cnc5ccccc5c4)ccc3ncc21 [Dactolisib] + Cc1cc(Nc2cc(N3CCN(C)CC3)nc(Sc3ccc(NC(=O)C4CC4)cc3)n2)n[nH]1 [Tozasertib] (partner 0.1 µM)
# Procedure, shortened: as §1
# AZ505 + Decitabine = compound: C1CCC(CC1)N(CCNCCC2=C3C(=C(C=C2)O)NC(=O)CO3)C(=O)CCNCCC4=CC(=C(C=C4)Cl)Cl [AZ505] + Nc1ncn([C@H]2C[C@H](O)[C@@H](CO)O2)c(=O)n1 [Decitabine] (partner 2 µM)
# Procedure, shortened: as §1
# Dactolisib + Vorinostat = compound: Cn1c(=O)n(-c2ccc(C(C)(C)C#N)cc2)c2c3cc(-c4cnc5ccccc5c4)ccc3ncc21 [Dactolisib] + O=C(CCCCCCC(=O)Nc1ccccc1)NO [Vorinostat] (partner 1 µM)
# Procedure, shortened: as §1
Cell Line,relative viability (AZ505 + Crizotinib; first compound 0.08 µM),relative viability (AZ505 + Crizotinib; first compound 0.253 µM),relative viability (AZ505 + Crizotinib; first compound 0.8 µM),relative viability (AZ505 + Crizotinib; first compound 2.53 µM),relative viability (AZ505 + Crizotinib; first compound 8 µM),relative viability (Dactolisib + Tozasertib; first compound 0.002 µM),relative viability (Dactolisib + Tozasertib; first compound 0.006325 µM),relative viability (Dactolisib + Tozasertib; first compound 0.02 µM),relative viability (Dactolisib + Tozasertib; first compound 0.06325 µM),relative viability (Dactolisib + Tozasertib; first compound 0.2 µM),relative viability (AZ505 + Decitabine; first compound 0.08 µM),relative viability (AZ505 + Decitabine; first compound 0.253 µM),relative viability (AZ505 + Decitabine; first compound 0.8 µM),relative viability (AZ505 + Decitabine; first compound 2.53 µM),relative viability (AZ505 + Decitabine; first compound 8 µM),relative viability (Dactolisib + Vorinostat; first compound 0.002 µM),relative viability (Dactolisib + Vorinostat; first compound 0.006325 µM),relative viability (Dactolisib + Vorinostat; first compound 0.02 µM),relative viability (Dactolisib + Vorinostat; first compound 0.06325 µM),relative viability (Dactolisib + Vorinostat; first compound 0.2 µM)
NCI-H358,0.566,0.572,0.551,0.536,0.371,0.114,0.0941,0.0945,0.0839,0.0896,0.2,0.209,0.194,0.218,0.21,0.68,0.652,0.503,0.154,0.165
NCI-H1944,1.12,1.04,1.11,0.881,1.15,0.308,0.237,0.237,0.156,0.153,0.436,0.465,0.414,0.475,0.418,0.576,0.56,0.492,0.29,0.223
EPLC-272H,0.714,0.865,0.927,0.985,0.934,0.348,0.221,0.243,0.207,0.193,0.35,0.352,0.305,0.343,0.354,0.571,0.409,0.261,0.36,0.159
NCI-H1915,0.881,0.948,0.887,0.827,0.969,0.419,0.506,0.459,0.404,0.296,0.278,0.303,0.29,0.27,0.279,0.556,0.487,0.531,0.402,0.453
NCI-H596,0.922,0.495,0.799,0.972,0.985,0.942,0.751,0.632,0.35,0.32,0.976,,0.974,1.15,0.979,0.48,0.577,0.521,0.313,0.222
NCI-H322M,0.93,0.786,0.878,0.828,0.931,0.386,0.46,0.414,0.412,0.37,0.679,,0.67,0.677,0.76,0.941,0.862,0.734,0.599,0.609
NCI-H647,0.941,1.15,0.993,0.957,1.25,0.265,0.235,0.19,0.099,0.112,0.356,0.451,0.372,0.373,0.379,0.369,0.308,0.265,0.123,0.0977
SK-MES-1,0.901,0.967,0.947,0.904,0.916,0.989,0.84,0.876,0.32,0.264,0.369,0.409,0.392,0.412,0.439,0.954,1,0.998,0.504,0.475
NCI-H2170,1.07,1.24,1.12,1.26,1.22,0.753,0.735,0.62,0.511,0.252,0.469,0.466,0.422,0.482,0.453,0.821,0.815,0.754,0.613,0.259
NCI-H2085,1.02,0.848,0.679,0.924,0.877,0.852,0.776,0.649,0.502,0.347,0.571,0.551,0.496,0.565,0.569,0.801,0.742,0.712,0.363,0.329
NCI-H727,0.683,0.829,0.738,0.805,0.827,0.585,0.587,0.561,0.451,0.407,0.829,0.693,0.812,0.849,0.987,,1.31,1.16,0.981,1.3
NCI-H441,0.615,0.823,0.995,0.699,0.738,0.831,0.632,0.522,0.384,0.284,0.287,0.245,0.232,0.25,0.264,0.841,0.675,0.802,0.276,0.34
LOU-NH91,0.713,0.723,0.722,0.778,0.72,0.645,0.655,0.683,0.616,0.449,0.783,0.818,0.781,0.801,0.805,0.903,0.898,0.784,0.524,0.529
NCI-H3122,0.255,0.275,0.299,0.268,0.294,0.427,0.361,0.425,0.352,0.16,0.417,0.414,0.418,0.454,0.431,1.03,0.854,1.09,1.04,0.671

# Reference: the supplement of paper PMC10307832
